Entries after “also recorded” stand apart in the source; their conditions may differ.
Tests used:
[1] = system: collagens in fixed tissue sections (skin, cornea, bone); assay: Immunohistochemistry of fixed tissue sections with UV-activated caged CMP; design: species or system mouse; settings: UV-activated on tissue
Text: For immunohistochemical staining, anti-collagen I antibody was purchased from Abcam (ab292, Cambridge, Mass.); bovine serum albumin (BSA), goat serum, and Triton X-100 were purchased from Sigma-Aldrich; DAPI was obtained from Roche Applied Science (Indianapolis, Ind.); Alexa Fluor® 594 F(ab′)2 fragment of goat anti-rabbit IgG and Prolong® Gold antifade reagent were purchased from Life Technologies. The skin and cornea tissues were harvested from a 23 month-old wild-type C57BL/6 mouse. The tissues were fixed with 4% paraformaldehyde in PBS solution (pH 7.4) for 1 hour and cryopreserved in Tissue-Tek O.C.T. medium (Sakura Finetek, Torrance, Calif.). Cryosections of 8 μm thickness were obtained and mounted onto charged glass slides. Paraffin embedded mouse bone sections were a kind gift from Dr. Catherine Foss and Dr. Collin Torok at Johns Hopkins University School of Medicine. The leg containing the tibia bone was harvested from a 12-week-old female athymic nu/nu mouse. The muscle tissues were manually trimmed, and the bone was fixed in 10% neutral-buffered formalin at room temperature overnight. The bone was demineralized in Decal Stat solution (Decal Chemical, Suffern, N.Y.) for 3 hr at room temperature, embedded in paraffin and sectioned to 4 μm at Tissue Microarray Facility of Johns Hopkins University. The formalin-fixed normal and fibrotic rat livers were a kind gift from Jie Yan and Yuzhan Kang at National University of Singapore. The tissues were sectioned to 10 μm thickness on glass slides and stained by Masson trichrome by the Reference Histology Laboratory, Johns Hopkins Medical Institutions.
Immunohistochemistry. Frozen fixed tissue slides were allowed to equilibrate to room temperature and dried under air flow. The tissue sections were permeabilized by cold methanol at −20° C. for 10 min, and incubated in 1×PBS solution. The paraffin embedded bone sections were de-paraffinized by two cycles of 5 min xylene wash, two cycles of 5 min 100% ethanol wash, and two cycles of 5 min 95% ethanol wash followed by soaking in 1×PBS solutions. […]

[2] = target: T1, type I collagen films (fibrillar collagen) (Rattus norvegicus, UniProt P02454+P02466); assay: Photo-triggered CMP binding assay on collagen films
T1 construct: Collagen solution (200 μL, 3.71 mg/mL, type I rat tail, BD Science); purchased BD Science; host or cells: rat tail
Protocol: Collagen/gelatin binding assays. Collagen solution (200 μL, 3.71 mg/mL, type I rat tail, BD Science) in 0.02 N acetic acid was added to each well of a 96-well black/clear-bottom plate (Costar) and air-dried. To make gelatin films, the same collagen solution was denatured at 70° C. for 15 minutes before applying to the well. The dried films were neutralized and washed with 1×PBS buffer (pH 7.4) and deionized water. PBS solution of carboxyfluorescein-labeled caged CMP (40 μL, 50 μM, unless indicated otherwise) pre-equilibrated at 4° C. was added onto each reconstituted collagen or gelatin film and exposed to 365 nm UV light (10 mW/cm^2, from mercury arc lamp) for 11 minutes on ice. Wells for the UV-negative control groups were covered with aluminum foil to block UV exposure. After incubation at 4° C. for over 3 hours (unless indicated otherwise), the unbound materials were removed by rinsing with PBS buffer and deionized water. The films were allowed to dry in dark, after which the fluorescence (ex: 489 nm, em: 533 nm) was measured with a SpectraMax Gemini XPS microplate reader (Molecular Devices). Each binding experiment was done in triplicate.

[3] = system: type I and type II gelatin; assay: CMP binding assay on thermally-denatured type I and II collagens (coatings); design: species or system rat (type I), bovine (type II); settings: UV-exposed, 20 μM, room temperature
Protocol: CMP binding assay on thermally-denatured type I and II collagens. A solid-state protein coating instead of a reconstituted gelatin film (as described above) was chosen as the binding substrate to avoid the collagen type dependent film instability. Wells of nunc black 96-well maxisorp plate (Thermo Scientific) were charged with 50 μL of 1×PBS buffer containing 100 μg/mL type I or type II (bovine, BD Science) collagen which was denatured by 10 minutes of incubation at 75° C. After 1 hour, the coating solutions were removed and wells were washed with 1×PBS buffer containing 1 mg/mL BSA (PBSB), and blocked with 50 mg/mL BSA in PBS for 1 hour, followed by additional wash with PBSB. CF^NB(GPO)9 (SEQ ID NO: 4) or CF^SG9P9O9 (SEQ ID NO: 5) solution (20 μM, 50 μL in PBS) was added to each well, exposed to UV light for 10 min, and incubated at room temperature for 2.5 hours. Wells were washed three times with 100 μL of PBSB followed by fluorescence (ex: 489 nm, em: 533 nm) reading with a SpectraMax M-2 microplate reader (Molecular Devices). Each binding experiment was done in triplicate. The background fluorescence of empty wells was subtracted from the raw fluorescence data.

T1 sequence (P02454 152-1207 limits assumed): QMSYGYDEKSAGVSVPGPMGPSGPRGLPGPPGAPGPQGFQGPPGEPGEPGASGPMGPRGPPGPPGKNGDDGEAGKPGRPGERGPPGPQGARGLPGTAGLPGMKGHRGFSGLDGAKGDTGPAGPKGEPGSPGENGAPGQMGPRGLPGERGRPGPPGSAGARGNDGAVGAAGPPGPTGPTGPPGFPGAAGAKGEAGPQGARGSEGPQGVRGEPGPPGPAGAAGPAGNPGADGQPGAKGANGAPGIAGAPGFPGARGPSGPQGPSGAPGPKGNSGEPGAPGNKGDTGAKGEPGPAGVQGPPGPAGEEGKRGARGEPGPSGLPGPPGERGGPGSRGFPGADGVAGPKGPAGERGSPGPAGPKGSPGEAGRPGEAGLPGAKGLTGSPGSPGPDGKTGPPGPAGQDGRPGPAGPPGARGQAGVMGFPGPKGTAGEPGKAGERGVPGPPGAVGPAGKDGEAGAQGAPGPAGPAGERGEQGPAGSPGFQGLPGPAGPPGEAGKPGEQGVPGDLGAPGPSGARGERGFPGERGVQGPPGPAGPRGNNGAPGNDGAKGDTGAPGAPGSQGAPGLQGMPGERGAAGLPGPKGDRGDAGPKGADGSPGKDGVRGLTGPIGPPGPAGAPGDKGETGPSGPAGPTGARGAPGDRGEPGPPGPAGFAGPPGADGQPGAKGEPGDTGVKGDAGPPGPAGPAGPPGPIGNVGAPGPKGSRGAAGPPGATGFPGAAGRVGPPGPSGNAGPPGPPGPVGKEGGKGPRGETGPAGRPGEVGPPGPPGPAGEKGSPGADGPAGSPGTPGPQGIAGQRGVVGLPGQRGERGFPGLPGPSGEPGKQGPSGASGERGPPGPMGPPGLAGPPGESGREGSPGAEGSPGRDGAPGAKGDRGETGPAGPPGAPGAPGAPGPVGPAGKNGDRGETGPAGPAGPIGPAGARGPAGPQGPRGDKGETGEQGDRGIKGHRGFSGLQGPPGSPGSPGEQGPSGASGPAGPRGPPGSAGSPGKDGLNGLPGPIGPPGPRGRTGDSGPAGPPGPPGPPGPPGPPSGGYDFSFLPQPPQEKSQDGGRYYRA
T1 sequence (P02466 86-1125 limits assumed): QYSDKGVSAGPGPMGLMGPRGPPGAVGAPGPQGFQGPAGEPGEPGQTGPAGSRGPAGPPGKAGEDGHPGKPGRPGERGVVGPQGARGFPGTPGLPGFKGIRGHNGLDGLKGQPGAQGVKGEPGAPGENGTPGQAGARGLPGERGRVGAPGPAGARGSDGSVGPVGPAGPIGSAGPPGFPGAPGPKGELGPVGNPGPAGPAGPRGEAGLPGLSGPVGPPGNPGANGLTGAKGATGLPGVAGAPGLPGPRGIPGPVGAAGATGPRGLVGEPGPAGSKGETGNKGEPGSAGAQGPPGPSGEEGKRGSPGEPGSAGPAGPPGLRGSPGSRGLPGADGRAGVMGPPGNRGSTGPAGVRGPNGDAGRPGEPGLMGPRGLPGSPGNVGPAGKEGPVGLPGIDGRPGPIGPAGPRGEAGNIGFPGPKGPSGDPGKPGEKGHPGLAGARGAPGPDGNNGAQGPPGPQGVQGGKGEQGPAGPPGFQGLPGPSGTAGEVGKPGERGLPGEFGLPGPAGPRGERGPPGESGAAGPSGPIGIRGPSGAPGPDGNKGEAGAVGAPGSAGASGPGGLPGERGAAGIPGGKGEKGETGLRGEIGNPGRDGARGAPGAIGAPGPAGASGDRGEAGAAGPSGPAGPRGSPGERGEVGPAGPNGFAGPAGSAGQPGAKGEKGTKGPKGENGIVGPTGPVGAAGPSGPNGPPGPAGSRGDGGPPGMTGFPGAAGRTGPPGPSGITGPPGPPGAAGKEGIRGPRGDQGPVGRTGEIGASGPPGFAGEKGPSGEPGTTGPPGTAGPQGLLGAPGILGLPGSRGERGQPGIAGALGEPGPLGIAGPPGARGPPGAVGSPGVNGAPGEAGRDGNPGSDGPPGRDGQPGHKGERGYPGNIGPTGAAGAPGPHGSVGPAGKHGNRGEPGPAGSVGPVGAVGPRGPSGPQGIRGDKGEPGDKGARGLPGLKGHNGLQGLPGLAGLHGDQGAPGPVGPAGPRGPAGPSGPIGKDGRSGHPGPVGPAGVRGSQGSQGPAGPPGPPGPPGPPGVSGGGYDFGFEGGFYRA

Row | Substance | staining of fixed mouse skin and cornea sections [1] | staining of demineralized, fixed, paraffin embedded mouse tibia bone sections ([1]; data not shown) | CMP binding lower by a factor of, compared to UV-triggered binding of CF^NB(GPO)9 ([2]; non-caged, triple helical, with UV exposure, 4° C.) | heat-induced binding level compared to photo-triggered caged CF^NB(GPO)9 ([2]; thermally melted at 75° C., non-caged) | collagen binding with and without UV exposure ([2]; 4° C., intact type I collagen films) | binding (fluorescence intensity of film) ([2]; caged, UV−) | binding affinity to gelatin (fluorescence level) [3]
1 | CF-GGG-(GPO)9 [CF(GPO)9] | effectively stained | strong | 11 | significantly elevated binding levels; also recorded: significantly higher binding level | – | – | –
2 | CF-GGG-(GPO)4^NBGPO(GPO)4 [CF^NB(GPO)9] | – | – | – | – | collagen binding was observed only after exposing the sample to UV light | negligible | confirmed for both type I and type II gelatin
3 | CF-GGG-PGOGPGPOPOGOGOPPGOOPGGOOPPG [CF^SG9P9O9, reference compound] | no discernible binding | – | – | – | – | – | negligible affinity to gelatin

Reference: patent US10426850B2, “Collagen mimetic peptides for targeting collagen strands for in vitro and in vivo imaging and therapeutic use” (The Johns Hopkins University, priority 2011, dated 2019)
